Source: patent publication US20120225933A1, “REGULATED EXPRESSION SYSTEMS” (priority 2009, published 2012)

Test: Toxicity of the inducer doxycycline in mice
Type: in vivo, BALB/c mice
Conditions: 200 mg/kg dox i.p.; also seen in control mice without vector
Method: In view of the fact that the luciferase activity levels obtained in the induced state were very low, the decision was made to increase the dose of inducer. To this end, two consecutive doses of 100 and 200 mg/kg of dox were administered by i.p. route, separated by a 14-day period.
The luciferase activity in the hepatic area was measured at 24 hours post-induction. […] These symptoms were also observed in the control mice, those without a vector. The system's maximum rate of induction is reached at a dose of 100 mg/kg of dox, and is approximately 10-fold.

In the case of C[C@H]1c2cccc(O)c2C(=O)C2=C(O)[C@]3(O)C(=O)C(C(N)=O)=C(O)[C@@H](N(C)C)[C@@H]3[C@@H](O)[C@@H]21 [dox, doxycycline], the dox-mediated toxicity is reported as “several mice died”.
